From PMC3948918 (PLoS ONE, 2014)
Where two headings read alike, the source gives them in different places. Numbered stars: 1 amine (or outer) side, 2 acyl side, 3 side chain; on linkers, the order of the positions; unused ones are H or OH. Bridge positions count the residues as written; N and C are the ends. Square brackets hold non-standard residues; d marks the D form. Peptide text beside a SMILES is read from it. Adda = CO[C@@H](Cc1ccccc1)[C@@H](C)/C=C(C)/C=C/[C@H](N[*:1])[C@H](C)C(=O)[*:2]; dAsp(3S-Me) = C[C@H](C(=O)[*:3])[C@@H](N[*:1])C(=O)[*:2]; d(γGlu) = O=C(O)[C@@H](CCC(=O)[*:2])N[*:1]; NMeDha = C=C(NC)C(=O)O

Tests used:
[1] = test system: OATP1B1-expressing HeLa cells; conditions: read-out: IC50 HeLa B1; cited from earlier work
[2] = test system: OATP1B1- and OATP1B3-expressing HeLa or RKO cell lines
[3] = test system: OATP1B3-expressing HeLa cells; conditions: cited from earlier work
HeLa Control cells [4] = conditions: cited from earlier work
PP2A = conditions: cited from earlier work
[5] = test system: OATP1B3-expressing HeLa cells; conditions: for IC50: human
OATP1B1 = experiment: in vitro; conditions: human
HeLa Control cells [6] = conditions: 24 h

SMILES | IC50 [1] [nM] | toxicity in the present assay compared with 1 (times lower) [2] | transporter selectivity (in words) [2] | IC50 ([2]; read-out: IC50 values (potency grouping)) [nM] | Ratio IC50 B1/B3 HeLa [3] | IC50 ([3]; read-out: IC50 HeLa B3) [nM] | IC50 (HeLa Control cells [4]) [nM] | PP2A inhibition compared with 1 (PP2A) | Ratio IC50 B1/B3 HeLa [5] | IC50 [5] [nM] | IC50 values (potency grouping) [2] | IC50 (OATP1B1) [nM] | IC50 (HeLa Control cells [6]) [nM]
C=C1C(=O)N[C@H](C)C(=O)N[C@@H](CCCNC(=N)N)C(=O)N[C@@H](C(=O)O)[C@H](C)C(=O)N[C@@H](CCCNC(=N)N)C(=O)N[C@@H](/C=C/C(C)=C/[C@H](C)[C@H](Cc2ccccc2)OC)[C@H](C)C(=O)N[C@@H](C(=O)O)CCC(=O)N1C [compound 10, RR] (R[Adda][d(γGlu)][NMeDha][dA]R[dAsp(3S-Me)]-OH; lactam N-7) | 3800 | about 500 times | most OATP1B3 selective | > 100 | 6.6 | 580 | > 10000 | about twenty times weaker |  |  |  |  | 
C/C=C1/NC(=O)CC[C@H](C(=O)O)NC(=O)[C@@H](C)[C@H](/C=C/C(C)=C/[C@H](C)[C@H](Cc2ccccc2)OC)NC(=O)[C@H](Cc2ccc(O)cc2)NC(=O)C[C@H](C(=O)O)NC(=O)[C@H](CCc2ccc(O)cc2)NC(=O)[C@@H](C)NC1=O [compound 18, [D-Asp^3,(E)-Dhb^7]MC-HtyY] |  |  | most OATP1B3 selective |  |  |  |  |  | 6.6 | 0.078 | sub-nanomolar | 0.515 | > 10
C/C=C1/NC(=O)CC[C@H](C(=O)O)NC(=O)[C@@H](C)[C@H](/C=C/C(C)=C/[C@H](C)[C@H](Cc2ccccc2)OC)NC(=O)[C@H](CCc2ccc(O)cc2)NC(=O)C[C@H](C(=O)O)NC(=O)[C@H](CCc2ccc(O)cc2)NC(=O)[C@@H](C)NC1=O [compound 19, [D-Asp^3,(E)-Dhb^7]MC-HtyHty] |  |  |  |  |  |  |  |  | 2.2 | 0.18 | sub-nanomolar | 0.39 | > 10
